Holding throughout (format): biochemical
The target of one experiment is T1, JAK3 (Homo sapiens, UniProt P52333).
T1 construct: made in house; host or cells: SF9 insect cells (baculovirus)
The experiment can be described thus: JAK3 inhibition (Table 4). The conditions noted are these: read-out: JAK3 Ki.

Another experiment concerns the target T2, JAK1 (Homo sapiens, UniProt P23458).
T2 construct: made in house; host or cells: SF9 insect cells (baculovirus)
The experiment can be described thus: JAK1 inhibition (Table 4). The settings on record: read-out: JAK1 Ki.

The next experiment deals with T3, TYK2 (Homo sapiens, UniProt P29597).
T3 construct: made in house; host or cells: SF9 insect cells (baculovirus)
T3 sequence (P29597 873-1187): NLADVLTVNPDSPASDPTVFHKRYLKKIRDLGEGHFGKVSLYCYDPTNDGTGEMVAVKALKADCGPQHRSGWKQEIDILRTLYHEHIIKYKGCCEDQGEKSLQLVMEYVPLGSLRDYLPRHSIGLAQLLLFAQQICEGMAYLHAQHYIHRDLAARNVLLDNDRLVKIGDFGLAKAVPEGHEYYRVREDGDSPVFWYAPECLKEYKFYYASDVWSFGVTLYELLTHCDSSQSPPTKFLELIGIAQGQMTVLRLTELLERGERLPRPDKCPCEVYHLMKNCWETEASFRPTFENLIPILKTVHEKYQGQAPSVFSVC
The experiment can be described thus: TYK2 inhibition (Table 4).

In the next experiment the target is T4, JAK2 (Homo sapiens, UniProt O60674).
T4 construct: made in house; host or cells: SF9 insect cells (baculovirus)
T4 sequence (O60674 812-1132): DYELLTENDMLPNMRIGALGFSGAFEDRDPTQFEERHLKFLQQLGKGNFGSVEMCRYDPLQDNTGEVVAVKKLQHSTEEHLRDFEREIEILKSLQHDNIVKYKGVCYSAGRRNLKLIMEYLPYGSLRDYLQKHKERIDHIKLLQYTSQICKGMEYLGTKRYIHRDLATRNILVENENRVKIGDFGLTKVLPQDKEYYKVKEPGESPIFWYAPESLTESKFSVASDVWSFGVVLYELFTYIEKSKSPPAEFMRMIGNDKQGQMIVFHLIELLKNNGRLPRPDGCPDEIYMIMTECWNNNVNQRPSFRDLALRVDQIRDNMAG
The experiment in a line: JAK2 inhibition (Table 4). The conditions noted are these: read-out: JAK2 Ki.

T2 sequence (P23458 852-1154): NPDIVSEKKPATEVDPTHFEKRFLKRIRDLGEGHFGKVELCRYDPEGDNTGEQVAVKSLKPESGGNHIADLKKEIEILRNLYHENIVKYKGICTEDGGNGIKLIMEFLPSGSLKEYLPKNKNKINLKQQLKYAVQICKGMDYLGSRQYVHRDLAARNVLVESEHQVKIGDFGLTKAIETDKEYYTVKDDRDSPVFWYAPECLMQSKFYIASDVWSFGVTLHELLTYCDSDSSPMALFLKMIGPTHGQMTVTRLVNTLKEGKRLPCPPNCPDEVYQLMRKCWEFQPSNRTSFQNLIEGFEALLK
T1 sequence (P52333 783-1124): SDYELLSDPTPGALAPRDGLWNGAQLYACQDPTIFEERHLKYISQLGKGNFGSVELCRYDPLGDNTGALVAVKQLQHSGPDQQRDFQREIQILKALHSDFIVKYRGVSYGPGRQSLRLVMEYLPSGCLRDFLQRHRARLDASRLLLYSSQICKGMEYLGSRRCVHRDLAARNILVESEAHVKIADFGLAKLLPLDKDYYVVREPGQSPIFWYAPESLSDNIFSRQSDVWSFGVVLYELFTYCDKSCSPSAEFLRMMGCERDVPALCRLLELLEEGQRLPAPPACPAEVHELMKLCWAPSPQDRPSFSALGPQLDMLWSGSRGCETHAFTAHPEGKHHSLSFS

Broadly, the Ki is a measure of affinity in units of concentration, obtained from inhibition or displacement. For the compound `CC(C)(C)OC(=O)NC1CCCC(n2cnc3cnc4[nH]ccc4c32)C1` (single isomer, unassigned) [Example 476, [3-(6H-1,3,5,6-Tetraaza-as-indacen-1-yl)-cyclohexyl]-carbamic acid tert-butyl ester], the inhibition constant (Ki) on JAK3 is 68.4 nM; on JAK1, 12.3 nM; at TYK2, 302 nM; on JAK2, 29.1 nM.

On to `O=C(Cc1nc2cnc3[nH]ccc3c2n1C1CCN(Cc2ccccc2)CC1)N1CCS(=O)(=O)CC1` [Example 102, 2-[1-(1-Benzyl-piperidin-4-yl)-1,6-dihydro-1,3,5,6-tetraaza-as-indacen-2-yl]-1-(1,1-dioxo-1λ*6*thiomorpholin-4-yl)ethanone], for which the Ki at JAK3 stood at 9.7 nM; at JAK1, 5.78 nM; on TYK2, 442 nM; on JAK2, 51.4 nM.

As to `Cc1nc2cnc3[nH]ccc3c2n1[C@H]1CC[C@@H](NCCC#N)C1` [Example 723, 3-[(1R,3S)-3-(2-Methyl-6H-1,3,5,6-tetraaza-as-indacen-1-yl)-cyclopentylamino]-propionitrile], the inhibition constant Ki at JAK3 is 4.88 nM; at JAK1, 6.22 nM; on TYK2, 94.6 nM; on JAK2, 29.7 nM.

Turning to `FC1(F)CN(Cc2ccccc2)CCC1n1cnc2cnc3[nH]ccc3c21` (stereo not drawn) [Example 179, 1-(1-Benzyl-3,3-difluoro-piperidin-4-yl)-1,6-dihydro-1,2,3,5,6-tetraaza-as-indacene], the Ki at JAK3 is 13.2 nM; on JAK1 it was 0.58 nM; at TYK2 it was 21.6 nM; on JAK2, 1.11 nM.

For the compound `CC(=O)N(C)CCc1nc2cnc3[nH]ccc3c2n1C1CCCCC1` [Example 802, N-[2-(1-Cyclohexyl-1,6-dihydro-1,3,5,6-tetraaza-as-indacen-2-yl)-ethyl]-N-methyl-acetamide], the inhibitory constant (Ki) at JAK3 came to 79.5 nM; at JAK1, 7.77 nM; on TYK2, 54.7 nM; at JAK2, 48.6 nM.

Consider `CC(O)c1nc2cnc3[nH]ccc3c2n1C1CCN(Cc2cccnc2)CC1` (racemic) [Example 292, 1-[1-(1-Pyridin-3-ylmethyl-piperidin-4-yl)-1,6-dihydro-1,3,5,6-tetraaza-as-indacen-2-yl]-ethanol], for which the Ki on JAK3 worked out at 7.9 nM; on JAK1, 2.92 nM; at TYK2, 218 nM; at JAK2, 26.5 nM.

For `C[C@@H](O)c1nc2cnc3[nH]ccc3c2n1[C@@H]1CCCN(C(=O)CC#N)C1` [Example 661, 3-{(R)-3-[2-((R)-1-Hydroxy-ethyl)-6H-1,2,3,5,6-tetraaza-as-indacen-1-yl]-piperidin-1-yl}-3-oxo-propionitrile], the inhibitory constant (Ki) was 55.4 nM at JAK3, 3.98 nM on JAK1, 46.2 nM at TYK2 and 66.3 nM at JAK2.

Take `Cc1nc2cnc3[nH]ccc3c2n1C1CC2CCC1C2` (stereo not drawn) [Example 121a, 1-Bicyclo[2.2.1]hept-2-yl-2-methyl-1,6-dihydro-1,2,3,5,6-tetraaza-as-indacene]: the Ki at JAK3 is 7.35 nM; at JAK1 it was 0.32 nM; on TYK2, 2.35 nM; at JAK2, 1.8 nM.

Take `COC1CNCCC1n1nnc2cnc3[nH]ccc3c21` (racemic) [Example 536, 1-(3-Methoxy-piperidin-4-yl)-1,6-dihydro-1,2,3,5,6-pentaaza-as-indacene]: the Ki at JAK3 is 1020 nM; at JAK1 it was 32.5 nM; on TYK2 it was 235 nM; at JAK2, 61.2 nM.

For `Cc1nc2cnc3[nH]ccc3c2n1C1CCN(CC(F)(F)F)CC1` [Example 587, 2-Methyl-1-[1-(2,2,2-trifluoro-ethyl)-piperidin-4-yl]-1,6-dihydro-1,2,3,5,6-tetraaza-as-indacene], the Ki at JAK3 was 8.35 nM; at JAK1, 0.61 nM; on TYK2, 8.02 nM; on JAK2 it was 2.16 nM.

On to `CCn1ncc(CN2CCC(n3c([C@@H](C)O)nc4cnc5[nH]ccc5c43)CC2)c1C` [Example 900, (R)-1-{1-[1-(1-Ethyl-5-methyl-1H-pyrazol-4-ylmethyl)-piperidin-4-yl]-1,6-dihydro-1,3,5,6-tetraaza-as-indacen-2-yl}-ethanol], for which the inhibition constant Ki at JAK3 stood at 130 nM; at JAK1, 18 nM; on TYK2, 2010 nM; at JAK2, 494 nM.

`N#C[C@H]1CC[C@H](n2cnc3cnc4[nH]ccc4c32)CC1` [Example 640, trans 4-(6H-1,2,3,5,6-Tetraaza-as-indacen-1-yl)-cyclohexanecarbonitrile]: the Ki stood at 82.7 nM on JAK3, 3.93 nM at JAK1, 25.1 nM at TYK2 and 9.66 nM on JAK2.

Regarding `CC(=O)N1CC[C@@H](n2cnc3cnc4[nH]ccc4c32)C1` [Example 188, 1-[(R)-3-(6H-1,2,3,5,6-Tetraaza-as-indacen-1-yl)-pyrrolidin-1-yl]-ethanone], the Ki worked out at 778 nM on JAK3, 68.5 nM on JAK1, 672 nM at TYK2 and 161 nM at JAK2.

Consider `CC1(n2cnc3cnc4[nH]ccc4c32)CCN(C(=O)CC#N)CC1` [Example 579, 3-[4-Methyl-4-(6H-1,2,3,5,6-tetraaza-as-indacen-1-yl)-piperidin-1-yl]-3-oxo-propionitrile], for which the inhibition constant (Ki) on JAK3 came out at 1360 nM; on JAK1 it was 106 nM; at TYK2, 329 nM; at JAK2 it was 483 nM.

`CCN1CC[C@@H](n2c(CNS(C)(=O)=O)nc3cnc4[nH]ccc4c32)[C@@H](F)C1` [Example 909, N-[1-((3S,4R)-1-Ethyl-3-fluoro-piperidin-4-yl)-1,6-dihydro-1,3,5,6-tetraaza-as-indacen-2-ylmethyl]-methanesulfonamide]: the inhibition constant (Ki) on JAK3 was 213 nM; on JAK1 it was 7.08 nM; at TYK2 it was 352 nM; at JAK2, 128 nM.

Turning to `CCC(C)S(=O)(=O)NCc1nc2cnc3[nH]ccc3c2n1C1CCN(CCC#N)CC1` (racemic) [Example 502, Butane-2-sulfonic acid {1-[1-(2-cyano-ethyl)-piperidin-4-yl]-1,6-dihydro-1,3,5,6-tetraaza-as-indacen-2-ylmethyl}-amide], the Ki was 105 nM on JAK3, 15.2 nM on JAK1, 417 nM on TYK2 and 90.6 nM at JAK2.

Consider `CC1CN(CCC#N)CCC1n1cnc2cnc3[nH]ccc3c21` (racemic) [Example 324, 3-[3-Methyl-4-(6H-1,3,5,6-tetraaza-as-indacen-1-yl)-piperidin-1-yl]-propionitrile], for which the Ki at JAK3 came to 5.2 nM; at JAK1 it was 0.63 nM; at TYK2, 3.76 nM; on JAK2 it was 0.6 nM.

As to `C[C@@H](O)c1nc2cnc3[nH]ccc3c2n1[C@H]1CC[C@@H](N2CCC(C#N)CC2)CC1` (relative stereo) [Example 611, Cis 1-{4-[2-(1-hydroxy-ethyl)-6H-1,2,3,5,6-tetraaza-as-indacen-1-yl]-cyclohexyl}-piperidine-4-carbonitrile], the inhibition constant (Ki) on JAK3 was 139 nM; at JAK1, 6.89 nM; on TYK2, 49.6 nM; on JAK2, 142 nM.

Consider `CC1(n2nnc3cnc4[nH]ccc4c32)CCN(CCC#N)CC1` [Example 582, 3-[4-Methyl-4-(6H-1,2,3,5,6-pentaaza-as-indacen-1-yl)-piperidin-1-yl]-propionitrile], for which the Ki was 592 nM on JAK3, 102 nM on JAK1, 1050 nM on TYK2 and 364 nM at JAK2.

For `Cc1nc2cnc3[nH]ccc3c2n1C1CCN(C(C)C)CC1` [Example 547, 1-(1-Isopropyl-piperidin-4-yl)-2-methyl-1,6-dihydro-1,3,5,6-tetraaza-as-indacene], the Ki on JAK3 amounted to 1410 nM; on JAK1, 27.4 nM; on TYK2, 638 nM; on JAK2 it was 184 nM.

As for `c1ccc(CN2CCC(n3c(C4CNC4)nc4cnc5[nH]ccc5c43)CC2)cc1` [Example 162, 2-Azetidin-3-yl-1-(1-benzyl-piperidin-4-yl)-1,6-dihydro-1,2,3,5,6-tetraaza-as-indacene], the Ki at JAK3 was found to be 46.8 nM; on JAK1, 7.45 nM; at TYK2, 677 nM; at JAK2, 23.1 nM.

For `CCC(COC)n1cnc2cnc3[nH]ccc3c21` (racemic) [Example 419, 1-(1-Methoxymethyl-propyl)-1,6-dihydro-1,3,5,6-tetraaza-as-indacene], the Ki at JAK3 worked out at 160 nM; at JAK1, 144 nM; at TYK2, 812 nM; at JAK2, 198 nM.

Regarding `C[C@]1(O)CC[C@H](n2nnc3cnc4[nH]ccc4c32)CC1` [Example 713, Trans-1-Methyl-4-(6H-1,2,3,5,6-pentaaza-as-indacen-1-yl)-cyclohexanol], the inhibition constant (Ki) on JAK3 turned out to be 202 nM; on JAK1, 8.14 nM; on TYK2 it was 62.7 nM; on JAK2, 15 nM.

With `OC1CCN(Cc2nc3cnc4[nH]ccc4c3n2C2CCN(CC(F)F)CC2)CC1` [Example 705, 1-{1-[1-(2,2-Difluoro-ethyl)-piperidin-4-yl]-1,6-dihydro-1,2,3,5,6-tetraaza-as-indacen-2-ylmethyl}-piperidin-4-ol], the Ki on JAK3 was determined as 311 nM; at JAK1 it was 48.6 nM; at TYK2, 665 nM; on JAK2 it was 340 nM.

The values above are taken from patent publication US8461328B2, “Tricyclic heterocyclic compounds, compositions and methods of use thereof” (Genentech, Inc., priority 2010, dated 2013).
